The test has as its target T1, αVβ3 (Homo sapiens, UniProt P05106+P06756).
T1 construct: purchased R & D 3050-AV
Description: Human αVβ3 solid phase assay (fibrinogen binding to coated αVβ3). To be noted: αVβ3 coated plates, fibrinogen as ligand. As to the method:
The following assay was conducted to assess αVβ3 binding affinity of the αVβ3-targeted compounds of this invention.
Human αVβ3 solid phase assay:
Immuno 96-well Plates (NUNC, Part#439454) were coated with αVβ3 (R & D, Cat#3050-AV) by adding 100 uL of αVβ3 (lx) to each well and incubating the plates overnight at […]. Buffer used was Buffer A: 20 mM Tris, 150 mM NaCl, 1 mM CaCl2, 1 mM MgCl2, pH7.4. After removal of the coating reagent, 150 uL of 3.5% BSA in Buffer A was added to each well to block the plates for 105 minutes at […]. After blocking, plates were washed 5 times with 200 uL of Buffer B (Buffer A+1 mM MnC12). 50 uL of test compound solution (2×) in 5% DMSO and 50 uL of fibrinogen (2×) (Innovative Research, Cat# IFIB) were then added to each well. Plates were shaken for 2 minutes, and then incubated for 2 hours for 370 C. After the plates were washed 5 times with 200 uL of Buffer B, the 1st antibody rabbit anti-human fibrinogen (Innovative Research, Cat IASHFBGN-GF) in the amount of 100 uL/well, and the 2nd antibody Goat anti-rabbit IgG Horse-radish peroxidase conjugate (Invitrogen, Cat#G21234) in the amount of 50 uL/well were added to plates, respectively. […] After being added 100 uL/well Stop Buffer (1.0 M Phosphoric Acid […]), plates were read on Envision at Absorbance mode 450 nm.

pIC50: −log10 of the molar value.

T1 sequence (P06756 31-992 limits assumed): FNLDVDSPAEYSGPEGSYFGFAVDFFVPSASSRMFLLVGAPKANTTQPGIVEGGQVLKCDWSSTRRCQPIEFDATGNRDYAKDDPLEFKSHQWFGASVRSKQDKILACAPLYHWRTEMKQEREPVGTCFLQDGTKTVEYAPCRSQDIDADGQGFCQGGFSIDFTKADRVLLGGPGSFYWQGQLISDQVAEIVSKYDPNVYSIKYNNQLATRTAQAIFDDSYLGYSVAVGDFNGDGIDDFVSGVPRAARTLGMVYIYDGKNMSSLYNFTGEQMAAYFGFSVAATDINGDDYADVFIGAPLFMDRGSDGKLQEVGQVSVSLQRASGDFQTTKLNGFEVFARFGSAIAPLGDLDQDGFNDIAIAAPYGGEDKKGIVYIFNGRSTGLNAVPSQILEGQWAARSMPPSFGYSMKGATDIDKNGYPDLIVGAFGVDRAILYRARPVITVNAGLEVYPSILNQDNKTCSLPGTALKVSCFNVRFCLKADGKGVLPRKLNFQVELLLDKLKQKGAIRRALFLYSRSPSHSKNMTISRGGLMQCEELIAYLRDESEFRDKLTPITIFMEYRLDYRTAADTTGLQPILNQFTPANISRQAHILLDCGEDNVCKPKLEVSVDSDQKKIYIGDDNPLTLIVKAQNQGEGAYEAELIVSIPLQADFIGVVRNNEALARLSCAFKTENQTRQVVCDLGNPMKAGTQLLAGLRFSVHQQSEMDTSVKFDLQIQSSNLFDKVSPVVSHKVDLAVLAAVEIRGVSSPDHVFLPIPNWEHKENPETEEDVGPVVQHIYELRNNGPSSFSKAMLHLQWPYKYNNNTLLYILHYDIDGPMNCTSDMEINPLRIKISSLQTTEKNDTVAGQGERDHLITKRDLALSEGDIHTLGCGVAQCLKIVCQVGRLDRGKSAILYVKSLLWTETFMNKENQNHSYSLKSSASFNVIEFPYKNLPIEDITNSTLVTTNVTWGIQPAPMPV
T1 sequence (P05106 27-718 limits assumed): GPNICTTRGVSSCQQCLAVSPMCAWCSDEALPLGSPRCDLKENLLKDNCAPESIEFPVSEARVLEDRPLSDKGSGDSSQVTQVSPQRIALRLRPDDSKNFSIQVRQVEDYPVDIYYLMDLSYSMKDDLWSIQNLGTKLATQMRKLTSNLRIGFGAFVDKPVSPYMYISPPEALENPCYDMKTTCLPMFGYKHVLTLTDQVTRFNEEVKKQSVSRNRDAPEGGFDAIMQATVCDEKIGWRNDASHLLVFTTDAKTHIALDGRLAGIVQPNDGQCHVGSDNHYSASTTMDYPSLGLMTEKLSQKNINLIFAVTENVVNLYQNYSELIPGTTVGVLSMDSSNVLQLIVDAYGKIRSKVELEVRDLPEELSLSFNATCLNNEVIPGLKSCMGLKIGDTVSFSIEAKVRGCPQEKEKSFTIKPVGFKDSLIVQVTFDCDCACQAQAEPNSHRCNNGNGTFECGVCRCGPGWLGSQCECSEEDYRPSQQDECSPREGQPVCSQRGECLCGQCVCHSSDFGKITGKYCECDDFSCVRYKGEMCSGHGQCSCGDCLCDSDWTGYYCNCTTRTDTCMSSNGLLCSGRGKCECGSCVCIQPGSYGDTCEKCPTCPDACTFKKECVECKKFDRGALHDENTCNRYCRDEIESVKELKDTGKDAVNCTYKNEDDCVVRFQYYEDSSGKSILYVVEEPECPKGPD

Molecule `COc1ccc(NC(=O)[C@H](CC(=O)O)NC(=O)CNC(=O)c2cccc(N=C(N)N)c2)cc1` [compound 141] gave a pIC50 of about 8.70.

As a reminder, the pIC50 is the IC50 on a negative log10 scale, so that one unit is a factor of ten. A lower pIC50 goes with a large IC50.

These data come from patent publication US9586916B2, “Integrin antagonist conjugates for targeted delivery to cells expressing alpha-V-beta-3” (Hoffmann-La Roche Inc., priority 2012, dated 2017).
